For 25 molecules, EC50 and IC50 results are on record in US20230339915A1 (Vertex Pharmaceuticals Incorporated, priority 2020, published 2023).

Bounds are passed on as bounds.

Assay [1] has as its target NL20 human bronchial epithelial cells expressing human Z-AAT (Homo sapiens (Human), UniProt P01009, E366K). Briefly: AAT Function Assay (MSD Assay NL20-SI Cell Line). It is filed as cell-based. The conditions noted are these: functionally active AAT (AAT-hNE complex, MSD) in supernatant of NL20 cells expressing human Z-AAT; read-out: NL20 Functional EC50. The method in brief: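 Secreted active Z-AAT was measured by MSD electrochemiluminescence: supernatants (45-fold total dilution) were incubated with human neutrophil elastase to form AAT–elastase complexes, captured by goat anti-AAT and detected with labelled anti-elastase. Cells were doxycycline-induced (0.1 μM) NL20 bronchial cells treated with compound overnight; M-AAT standard curve.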

Assay [2] concerns the target purified Z-AAT protein from human plasma (Homo sapiens (Human), UniProt P01009, E366K). Briefly: Biochemical Assay (Z-AAT Elastase Activity Assay). The settings on record: purified Z-AAT pre-incubated with compound 1 hour, then human neutrophil elastase and fluorescent substrate. The method in brief:
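Purified plasma Z-AAT (20 nM) preincubated with compounds 1 h at room temperature, then 3 nM human neutrophil elastase added in PBS + 0.01% BRIJ35 for 30 min to form suicide complex. Residual elastase activity read immediately by fluorescence after adding 300 μM MeOSuc-AAPV-AMC substrate solution.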

Chain of purified Z-AAT protein from human plasma (P01009 25-418 E366K limits assumed): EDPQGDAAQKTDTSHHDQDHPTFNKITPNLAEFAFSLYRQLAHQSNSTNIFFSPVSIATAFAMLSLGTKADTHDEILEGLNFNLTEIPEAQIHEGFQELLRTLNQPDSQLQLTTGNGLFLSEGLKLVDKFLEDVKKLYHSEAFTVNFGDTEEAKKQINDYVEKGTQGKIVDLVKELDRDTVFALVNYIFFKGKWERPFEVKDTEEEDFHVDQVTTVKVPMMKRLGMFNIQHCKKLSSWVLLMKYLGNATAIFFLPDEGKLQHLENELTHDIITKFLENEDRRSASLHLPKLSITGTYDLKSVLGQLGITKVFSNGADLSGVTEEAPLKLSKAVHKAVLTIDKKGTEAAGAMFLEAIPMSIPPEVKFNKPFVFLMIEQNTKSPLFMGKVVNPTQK
Chain of NL20 human bronchial epithelial cells expressing human Z-AAT (P01009 25-418 E366K limits assumed): as above

In the case of `CC(C)(C)OC(=O)N1CCC(c2c(C#N)c3cc(O)ccc3n2-c2ccc(F)cc2)CC1` [Compound 199], the concentration for a half-maximal effect (EC50) in assay [1] is greater than 2 µM. The half-maximal inhibitory concentration (IC50) in assay [2] is greater than 30 µM.
For `N#Cc1c(C2CCNCC2)n(-c2ccc(F)cc2)c2ccc(O)cc12` [Compound 200], in that order: greater than 2 µM and greater than 30 µM.
On to `N#Cc1c(C2CCOCC2)n(-c2ccccc2)c2ccc(O)cc12` [Compound 202], for which the half-maximal effective concentration (EC50) in assay [1] is greater than 2 µM. The half-inhibitory concentration (IC50) in assay [2] is greater than 30 µM.
For `N#Cc1c(C2CC2)n(-c2ccc(F)cc2)c2ccc(O)cc12` [Compound 203], the half-maximal effective concentration (EC50) in assay [1] is less than 0.5 µM. Moreover, in assay [2], the concentration for half-maximal inhibition (IC50) is greater than 30 µM.
Turning to `CCCn1c(C(C)C)c(C#N)c2cc(O)ccc21` [Compound 204, 5-hydroxy-2-isopropyl-1-propyl-1H-indole-3-carbonitrile], the concentration giving a half-maximal response (EC50) in assay [1] is greater than 2 µM. For the same molecule, the 50% inhibitory concentration (IC50) in assay [2] was greater than 30 µM.
For `CCCn1c(C(C)(C)C)c(C#N)c2cc(O)ccc21` [Compound 205, 2-(tert-butyl)-5-hydroxy-1-propyl-1H-indole-3-carbonitrile], in that order: greater than 2 µM and greater than 30 µM.
Take `CS(N)(=O)=Cc1c(C#N)c2cc(O)ccc2n1-c1ccc(F)cc1` (centres unmarked) [Compound 206, 1-(3-cyano-1-(4-fluorophenyl)-5-hydroxy-1H-indol-2-yl)-S-methylmethanesulfinamide]: the EC50 in assay [1] is greater than 2 µM. Besides, the 50% inhibitory concentration (IC50) in assay [2] is greater than 30 µM.
For the molecule `N#Cc1c(C2=S(N)(=O)CCC2)n(-c2ccc(F)cc2)c2ccc(O)cc12` (centres unmarked) [Compound 207], the EC50 in assay [1] was greater than 2 µM. The IC50 in assay [2] was greater than 30 µM.
As to `Cc1cc(-n2c(C)c(C#N)c3cc(O)cc(C)c32)ccc1F` [Compound 208, 1-(4-fluoro-3-methylphenyl)-5-hydroxy-2,7-dimethyl-1H-indole-3-carbonitrile], the EC50 in assay [1] was greater than 2 µM. Moreover, the IC50 in assay [2] was greater than 30 µM.
For `Cc1cc2c(cc1O)c(C#N)c(C)n2-c1ccc(F)c(C)c1` [Compound 210], in that order: greater than 2 µM and greater than 30 µM.
Turning to `Cc1cc(-n2c(C)c(C#N)c3cc(O)c(N)cc32)ccc1F` [Compound 211, 6-amino-1-(4-fluoro-3-methylphenyl)-5-hydroxy-2-methyl-1H-indole-3-carbonitrile], the EC50 in assay [1] was greater than 2 µM. Moreover, the IC50 in assay [2] is greater than 30 µM.
On to `Cc1cc(-n2c(C)c(C#N)c3cc(O)cc(N)c32)ccc1F` [Compound 212, 7-amino-1-(4-fluoro-3-methyl-phenyl)-5-hydroxy-2-methyl-indole-3-carbonitrile], for which the EC50 in assay [1] is greater than 2 µM. Further, in assay [2], the concentration for half-maximal inhibition (IC50) was greater than 30 µM.
With `CNS(=O)(=O)N1CC(c2c(C(C)C)n(-c3ccc(F)c(C)c3)c3ccc(O)cc23)C1` [Compound 213, 3-(1-(4-fluoro-3-methylphenyl)-5-hydroxy-2-isopropyl-1H-indol-3-yl)-N-methylazetidine-1-sulfonamide], in assay [1], the half-maximal effective concentration (EC50) was greater than 2 µM. The half-maximal inhibitory concentration (IC50) in assay [2] was greater than 5 µM.
Consider `CC(=O)NS(=O)(=O)N1CC(c2c(C(C)C)n(-c3ccc(F)c(C)c3)c3ccc(O)cc23)C1` [Compound 214, N-((3-(1-(4-fluoro-3-methylphenyl)-5-hydroxy-2-isopropyl-1H-indol-3-yl)azetidin-1-yl)sulfonyl)acetamide], for which the EC50 in assay [1] is greater than 2 µM. In assay [2], the half-maximal inhibitory concentration (IC50) was greater than 30 µM.
In the same order, the values of `Cc1cc(-n2c(C(C)C)c([C@H]3C[C@@H](C#N)C3)c3cc(O)ccc32)ccc1F` [Compound 215, 3-[1-(4-fluoro-3-methyl-phenyl)-5-hydroxy-2-isopropyl-indol-3-yl]cyclobutanecarbonitrile] are greater than 2 µM and greater than 5 µM.
As to `Cc1cc(-n2c(C(C)C)c([C@@H]3COC[C@@H]3C#N)c3cc(O)ccc32)ccc1F` [Compound 216], in assay [1], the EC50 was greater than 2 µM. In addition, in assay [2], the concentration for half-maximal inhibition (IC50) was greater than 5 µM.
In the same order, the values of `Cc1cc(-n2c(C(C)C)c([C@H]3C[C@@H](c4nn[nH]n4)C3)c3cc(O)ccc32)ccc1F` [Compound 217, 1-(4-fluoro-3-methyl-phenyl)-2-isopropyl-3-[3-(2H-tetrazol-5-yl)cyclobutyl]indol-5-ol] are 0.5 to 2 µM and greater than 5 µM.
For `Cc1cc(-n2c(C3CCOCC3)c([C@H]3C[C@H](c4nn[nH]n4)C3)c3cc(O)ccc32)ccc1F` [Compound 218, 1-(4-fluoro-3-methyl-phenyl)-2-tetrahydropyran-4-yl-3-[3-(2H-tetrazol-5-yl)cyclobutyl]indol-5-ol], in that order: greater than 2 µM and greater than 30 µM.
`Cc1cc(-n2c(C(C)C)c([C@H]3C[C@@H](C(=O)NS(C)(=O)=O)C3)c3cc(O)ccc32)ccc1F` [Compound 219, Cis-3-[1-(4-fluoro-3-methyl-phenyl)-5-hydroxy-2-isopropyl-indol-3-yl]-N-methylsulfonyl-cyclobutanecarboxamide]: the EC50 in assay [1] is greater than 2 µM. Also, the IC50 in assay [2] is greater than 5 µM.
In the same order, the values of `Cc1cc(-n2c(C(C)C)c([C@H]3C[C@H](C(=O)NS(C)(=O)=O)C3)c3cc(O)ccc32)ccc1F` [Compound 220, trans-3-[1-(4-fluoro-3-methyl-phenyl)-5-hydroxy-2-isopropyl-indol-3-yl]-N-methylsulfonyl-cyclobutanecarboxamide] are greater than 2 µM and greater than 5 µM.
As for `Cc1cc(-n2c(C3CCOCC3)c([C@H]3C[C@H](c4noc(=O)[nH]4)C3)c3cc(O)ccc32)ccc1F` [Compound 223, Trans-3-[3-[1-(4-fluoro-3-methyl-phenyl)-5-hydroxy-2-tetrahydropyran-4-yl-indol-3-yl]cyclobutyl]-4H-1,2,4-oxadiazol-5-one], the EC50 in assay [1] lay in the range of 0.5 to 2 µM. The IC50 in assay [2] is greater than 30 µM.
As for `Cc1cc(-n2c(C3CCOCC3)c([C@H]3C[C@@H](c4noc(=O)[nH]4)C3)c3cc(O)ccc32)ccc1F` [Compound 224, cis-3-[3-[1-(4-fluoro-3-methyl-phenyl)-5-hydroxy-2-tetrahydropyran-4-yl-indol-3-yl]cyclobutyl]-4H-1,2,4-oxadiazol-5-one], the concentration for a half-maximal effect (EC50) in assay [1] was greater than 2 µM. Also, in assay [2], the IC50 is greater than 30 µM.
As to `Cc1cc(-n2c(C(C)C)c([C@H]3C[C@H](CO)C3)c3cc(O)ccc32)ccc1F` [Compound 225, Trans-1-(4-fluoro-3-methyl-phenyl)-3-[3-(hydroxymethyl)cyclobutyl]-2-isopropyl-indol-5-ol], in assay [1], the EC50 is greater than 2 µM. The IC50 in assay [2] is greater than 30 µM.
As for `Cc1cc(-n2c(C(C)C)c([C@H]3C[C@@H](CO)C3)c3cc(O)ccc32)ccc1F` [Compound 226, cis-1-(4-fluoro-3-methyl-phenyl)-3-[3-(hydroxymethyl)cyclobutyl]-2-isopropyl-indol-5-ol], the 50% effective concentration (EC50) in assay [1] was greater than 2 µM. In addition, in assay [2], the IC50 was greater than 30 µM.
For `Cc1cc(-n2c(C(C)C)c([C@@H]3CC[C@@H]3CO)c3cc(O)ccc32)ccc1F` [Compound 227], in that order: greater than 2 µM and greater than 30 µM.

Usually EC50 stands for the midpoint of the concentration-response curve. Broadly, the IC50 is the midpoint of a concentration-inhibition curve.
